# Assay results reported in paper PMC8205226, “HIV-1 Integrase Inhibitors with Modifications That Affect Their Potencies against Drug Resistant Integrase Mutants” (ACS Infectious Diseases, 2021).
# Experiments:
# [1] = test system: HIV-1 IN mutant Y143R; test: single-round infectivity assay, Y143R IN mutant; type: cell-based
# Description: (§1) Figure 2 Antiviral activities of the new compounds against RAL-resistant mutants. The EC50 values were determined using a vector that carries WT HIV-1 IN and the RAL-resistant mutants in a single round infection assay. […] Error bars represent the standard deviations of independent experiments, n = 4, performed in triplicate. The graph has a maximum value of 550 nM.
# (§2) WT and mutant HIV-1 viral vectors were used in single-round infectivity assays to determine the antiviral potencies (EC50 values) of the compounds and the effects of the mutants on the EC50 values as previously described.[30],[54] Single round infectivity measurements were determined as done previously.[38]
# (§3) The vector pNLNgoMIVR-ΔENV.LUC has been described previously.[26] To produce the new IN mutants used in this study, the IN open reading frame was removed from pNLNgoMIVR-ΔENV.LUC by digestion with KpnI and SalI, and the resulting fragment was inserted between the KpnI and SalI sites of pBluescript KS+. Using that construct as the wild-type template, we prepared the following HIV-1 IN mutants using the QuikChange II XL site directed mutagenesis kit (Agilent Technologies, Santa Clara, CA) protocol: N117A, N117H, P142A, P142H, P142S, Y143C, Y143H, S230R, R231G, and R231K. The following sense oligonucleotides were used with matching cognate antisense oligonucleotides (not shown) (Integrated DNA Technologies, Coralville, IA) in the mutagenesis: N117A, 5′-[…]-3′; N117H, 5′-[…]-3′; P142A, 5′-[…]-3′; P142H, 5′-[…]-3′; P142S, 5′-[…]-3′; Y143C, 5′- […]-3′; Y143H, 5′-[…]-3′; S230R, 5′- […]-3′; R231G, 5′-[…]-3′; R231K, 5′-[…]-3′.
# [2] = test system: HIV-1 IN mutant N155H; test: single-round infectivity assay, N155H IN mutant; type: cell-based
# Description: as §1, §2, §3
# [3] = test system: HIV-1 IN double mutant G140S/Q148H; test: single-round infectivity assay, G140S/Q148H IN double mutant; type: cell-based
# Description: as §1, §2, §3
# [4] = test system: HIV-1 IN mutant N117A; test: single-round infectivity assay, N117A IN mutant; type: cell-based
# Description: (§4) The EC50 values were determined using a vector that carries the IN mutant in a single round infection assay. […] Error bars represent the standard deviations of independent experiments, n = 4, performed in triplicate.
# as §2, §3
# [5] = test system: HIV-1 IN mutant N117H; test: single-round infectivity assay, N117H IN mutant; type: cell-based
# Description: as §4, §2, §3
# [6] = test system: HIV-1 IN mutant G118R; test: single-round infectivity assay, G118R IN mutant; type: cell-based
# Description: as §4, §2, §3
# [7] = test system: HIV-1 IN mutant S119R; test: single-round infectivity assay, S119R IN mutant; type: cell-based
# Description: as §4, §2, §3
# [8] = test system: HIV-1 IN mutant Y143C; test: single-round infectivity assay, Y143C IN mutant; type: cell-based
# Description: as §4, with “Figure 4 Mutations in the β5-α3 loop affect the antiviral potencies of the new compounds. The” for “The”
# as §2, §3
# [9] = test system: HIV-1 IN mutant Y143H; test: single-round infectivity assay, Y143H IN mutant; type: cell-based
# Description: as §4, with “Figure 4 Mutations in the β5-α3 loop affect the antiviral potencies of the new compounds. The” for “The”
# as §2, §3
# [10] = test system: HIV-1 IN mutant P142A; test: single-round infectivity assay, P142A IN mutant; type: cell-based
# Description: as §4, with “Figure 4 Mutations in the β5-α3 loop affect the antiviral potencies of the new compounds. The” for “The”
# as §2, §3
# [11] = test system: HIV-1 IN mutant P142H; test: single-round infectivity assay, P142H IN mutant; type: cell-based
# Description: as §4
# Single round infectivity measurements were determined as done previously.[38]
# as §3
# [12] = test system: HIV-1 IN mutant P142S; test: single-round infectivity assay, P142S IN mutant; type: cell-based
# Description: as §4, with “Figure 4 Mutations in the β5-α3 loop affect the antiviral potencies of the new compounds. The” for “The”
# as §2, §3
# [13] = test system: HIV-1 IN mutant S230R; test: single-round infectivity assay, S230R IN mutant; type: cell-based
# Description: as §4, with “Figure 5 Antiviral potencies of the new compounds against IN with mutations in the […]. The” for “The”
# as §2, §3
# [14] = test system: HIV-1 IN mutant R231G; test: single-round infectivity assay, R231G IN mutant; type: cell-based
# Description: as §4, with “Figure 5 Antiviral potencies of the new compounds against IN with mutations in the […]. The” for “The”
# as §2, §3
# [15] = test system: HIV-1 IN mutant R231K; test: single-round infectivity assay, R231K IN mutant; type: cell-based
# Description: as §4, with “Figure 5 Antiviral potencies of the new compounds against IN with mutations in the […]. The” for “The”
# as §2, §3
# [16] = test system: WT HIV-1; conditions: vector carrying WT HIV-1 IN, single round infection; previously reported; cited from earlier work
# [17] = test system: HIV-1 IN mutant Y143R; conditions: single round infection; previously reported; cited from earlier work
# [18] = test system: HIV-1 IN mutant N155H; conditions: single round infection; previously reported; cited from earlier work
# [19] = test system: HIV-1 IN double mutant G140S/Q148H; conditions: single round infection; previously reported; cited from earlier work
# [20] = fold change in EC50, IN mutant versus WT HIV-1
smiles,measurement,setting,value
COC(=O)CNc1c(C(=O)NCc2ccc(F)cc2F)c(=O)n(O)c2ncccc12 [5′g],ratio of the EC50s (our compound relative to DTG) against Y143R,[1]; EC50 compound / EC50 DTG,1.1
same,FC Y143R,[1]; [20],1.2
same,ratio of the EC50s (our compound relative to DTG) against N155H,[2]; EC50 compound / EC50 DTG,5.3
same,FC N155H,[2]; [20],5.0
same,ratio of the EC50s (our compound relative to DTG) against G140S/Q148H,[3]; EC50 compound / EC50 DTG,6.1
same,FC G140S/Q148H,[3]; [20],9.3
same,ratio of the EC50s (our compound relative to DTG) against N117A,[4]; EC50 compound / EC50 DTG,2.4
same,EC50,"[4]; Human immunodeficiency virus 1, read-out: EC50 values N117A",1.2 ± 0.2 nM
same,FC N117A,[4]; [20],0.3
same,ratio of the EC50s (our compound relative to DTG) against N117H,[5]; EC50 compound / EC50 DTG,2.3
same,EC50,"[5]; Human immunodeficiency virus 1, read-out: EC50 values N117H",5.6 ± 0.9 nM
same,FC N117H,[5]; [20],1.5
same,ratio of the EC50s (our compound relative to DTG) against G118R,[6]; EC50 compound / EC50 DTG,13.1
same,EC50,"[6]; Human immunodeficiency virus 1, read-out: EC50 values G118R",171 ± 3.2 nM
same,ratio of the EC50s (our compound relative to DTG) against S119R,[7]; EC50 compound / EC50 DTG,9.7
same,EC50,"[7]; Human immunodeficiency virus 1, read-out: EC50 values S119R",22.3 ± 1.7 nM
same,FC S119R,[7]; [20],5.9
same,ratio of the EC50s (our compound relative to DTG) against Y143C,[8]; EC50 compound / EC50 DTG,28.1
same,EC50,"[8]; Human immunodeficiency virus 1, read-out: EC50 values Y143C, single round infection, n = 4",39.3 ± 7.3 nM
same,FC Y143C,[8]; [20],10.3
same,ratio of the EC50s (our compound relative to DTG) against Y143H,[9]; EC50 compound / EC50 DTG,3.6
same,EC50,"[9]; Human immunodeficiency virus 1, read-out: EC50 values Y143H, single round infection, n = 4",7.9 ± 1 nM
same,FC Y143H,[9]; [20],2.1
same,ratio of the EC50s (our compound relative to DTG) against P142A,[10]; EC50 compound / EC50 DTG,5.6
same,EC50,"[10]; Human immunodeficiency virus 1, read-out: EC50 values P142A",14.1 ± 0.3 nM
same,FC P142A,[10]; [20],3.7
same,ratio of the EC50s (our compound relative to DTG) against P142H,[11]; EC50 compound / EC50 DTG,4.6
same,EC50,"[11]; Human immunodeficiency virus 1, read-out: EC50 values P142H",12.8 ± 2.9 nM
same,FC P142H,[11]; [20],3.4
same,ratio of the EC50s (our compound relative to DTG) against P142S,[12]; EC50 compound / EC50 DTG,12.4
same,EC50,"[12]; Human immunodeficiency virus 1, read-out: EC50 values P142S",27.2 ± 4.4 nM
same,FC P142S,[12]; [20],7.2
same,ratio of the EC50s (our compound relative to DTG) against S230R,[13]; EC50 compound / EC50 DTG,1.0
same,EC50,"[13]; Human immunodeficiency virus 1, read-out: EC50 values S230R",4.5 ± 1.5 nM
same,FC S230R,[13]; [20],1.2
same,ratio of the EC50s (our compound relative to DTG) against R231G,[14]; EC50 compound / EC50 DTG,6.9
same,EC50,"[14]; Human immunodeficiency virus 1, read-out: EC50 values R231G",9.7 ± 2.4 nM
same,FC R231G,[14]; [20],2.6
same,ratio of the EC50s (our compound relative to DTG) against R231K,[15]; EC50 compound / EC50 DTG,2.2
same,EC50,"[15]; Human immunodeficiency virus 1, read-out: EC50 values R231K, single round infection, n = 4",9.2 ± 2.1 nM
same,FC R231K,[15]; [20],2.4
same,EC50,[16],3.8 ± 1.2 nM
same,EC50,[17],4.6 ± 2.2 nM
same,EC50,[18],19 ± 6.9 nM
same,EC50,[19],35.5 ± 15.9 nM
